Read-outs that look alike come from different tables or passages of the source.
Legend:
CYP52A3 = molecular target: T1, CYP52A3 (Candida maltosa, UniProt P16496); conditions: terminal hydroxylation; by alkane/FA chain length; cited from earlier work
T1 sequence (P16496 2-523 limits assumed): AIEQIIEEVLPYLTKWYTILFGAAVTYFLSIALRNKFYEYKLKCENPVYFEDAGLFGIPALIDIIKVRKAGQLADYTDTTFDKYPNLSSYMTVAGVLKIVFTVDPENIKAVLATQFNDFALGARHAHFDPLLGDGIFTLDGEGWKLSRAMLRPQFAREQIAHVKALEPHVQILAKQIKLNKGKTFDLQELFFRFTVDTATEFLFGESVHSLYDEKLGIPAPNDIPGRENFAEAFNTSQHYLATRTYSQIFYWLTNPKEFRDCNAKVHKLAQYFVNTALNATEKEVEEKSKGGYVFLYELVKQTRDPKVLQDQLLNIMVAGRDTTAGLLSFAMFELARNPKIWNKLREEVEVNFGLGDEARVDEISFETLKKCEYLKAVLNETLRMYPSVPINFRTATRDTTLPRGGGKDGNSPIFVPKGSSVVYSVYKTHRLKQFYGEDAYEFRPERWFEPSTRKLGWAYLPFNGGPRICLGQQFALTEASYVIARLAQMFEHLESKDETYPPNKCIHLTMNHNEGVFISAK

CYP52A4 = molecular target: T2, CYP52A4 (Candida maltosa, UniProt P16141); conditions: terminal hydroxylation; by alkane/FA chain length; cited from earlier work
T2 sequence (P16141 1-538): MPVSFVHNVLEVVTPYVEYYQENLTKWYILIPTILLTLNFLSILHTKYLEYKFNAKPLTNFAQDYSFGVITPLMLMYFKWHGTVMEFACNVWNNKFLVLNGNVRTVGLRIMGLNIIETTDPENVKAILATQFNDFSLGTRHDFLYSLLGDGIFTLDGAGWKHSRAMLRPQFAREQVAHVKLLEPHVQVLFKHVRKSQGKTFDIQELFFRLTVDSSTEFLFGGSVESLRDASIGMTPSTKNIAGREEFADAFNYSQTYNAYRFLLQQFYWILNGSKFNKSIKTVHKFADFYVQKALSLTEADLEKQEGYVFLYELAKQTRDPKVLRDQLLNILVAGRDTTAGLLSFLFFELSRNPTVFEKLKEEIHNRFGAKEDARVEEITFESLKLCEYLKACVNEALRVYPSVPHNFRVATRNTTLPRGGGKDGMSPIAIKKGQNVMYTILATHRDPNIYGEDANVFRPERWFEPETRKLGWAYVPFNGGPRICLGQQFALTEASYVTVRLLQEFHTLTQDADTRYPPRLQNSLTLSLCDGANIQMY

CYP52A21 = conditions: cited from earlier work
AlkB P. putida GPo1 = molecular target: T3, AlkB P. putida GPo1 (Ectopseudomonas oleovorans, UniProt P12691); conditions: terminal hydroxylation; by alkane/FA chain length; cited from earlier work
T3 sequence (P12691 1-401): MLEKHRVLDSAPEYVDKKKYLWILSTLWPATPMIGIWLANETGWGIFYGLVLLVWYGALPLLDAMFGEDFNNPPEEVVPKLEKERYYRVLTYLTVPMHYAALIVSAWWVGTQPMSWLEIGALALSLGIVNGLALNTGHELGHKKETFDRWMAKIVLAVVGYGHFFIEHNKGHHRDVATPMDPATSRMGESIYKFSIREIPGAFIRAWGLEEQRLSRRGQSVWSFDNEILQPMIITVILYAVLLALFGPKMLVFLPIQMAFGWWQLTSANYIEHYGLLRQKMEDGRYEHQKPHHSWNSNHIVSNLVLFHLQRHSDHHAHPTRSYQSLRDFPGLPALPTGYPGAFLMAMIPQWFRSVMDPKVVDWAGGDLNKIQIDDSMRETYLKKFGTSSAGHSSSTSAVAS

alkB2 Gordonia sp TF6 = conditions: terminal hydroxylation; 100% relative activity obtained with hexane; cited from earlier work
CYP153A6 = conditions: cited from earlier work
CYP153A16 = conditions: cited from earlier work
CYP153A P. sp. = conditions: cited from earlier work
LadA = molecular target: T4, LadA (Geobacillus thermodenitrificans, UniProt A4IU28); conditions: terminal hydroxylation; by alkane/FA chain length; cited from earlier work
T4 sequence (A4IU28 1-440): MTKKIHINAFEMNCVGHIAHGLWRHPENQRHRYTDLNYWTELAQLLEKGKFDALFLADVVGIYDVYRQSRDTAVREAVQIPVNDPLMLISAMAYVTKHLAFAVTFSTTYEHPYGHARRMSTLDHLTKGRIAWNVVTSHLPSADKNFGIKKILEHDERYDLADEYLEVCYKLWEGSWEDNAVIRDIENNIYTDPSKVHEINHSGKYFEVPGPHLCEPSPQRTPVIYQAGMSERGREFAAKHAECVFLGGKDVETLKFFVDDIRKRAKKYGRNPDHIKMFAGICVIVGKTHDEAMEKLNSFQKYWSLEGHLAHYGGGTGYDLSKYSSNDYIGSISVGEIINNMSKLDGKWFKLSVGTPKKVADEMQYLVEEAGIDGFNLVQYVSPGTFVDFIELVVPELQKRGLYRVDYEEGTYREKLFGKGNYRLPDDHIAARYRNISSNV

Helicoverpa zea = assay: Wind tunnel bioassay: upwind flight and lure location of male moths; type: in vivo; conditions: conclusions from 8.1-8.2
Method: Four separate experiments were conducted with the moth Helicoverpa zea and its respective pheromone components (Z-11-hexadecenal, Z-9-hexadecenal). Further, the addition of Z-5-hexadecenal, the positional isomer of the natural insect Z-11-hexadecenal pheromone, was also added to the Z-11 and Z-9 blends and tested. Upwind flight and lure location of male moths were compared for: natural ratios of pheromone (97% Z-11-hexadecenal with 3% of Z-9-hexadecenal) with and without addition of the Z-5-hexadecenal positional isomer at various ratios.
Moths (4-6 day-old males in second half of scotophase) were flown in a glass wind tunnel (120×30×30 cm). A fan pushed air into the wind tunnel at 0.4 m sec^−1 and a second fan exhausted air at a similar rate. To provide visual cues for navigation, the floor was covered with light colored construction paper on which small (2-5 cm) circles were drawn with marker (Experiment 1) or light colored circles that were cut from light colored construction paper were placed on the floor (Experiments 2-4). Lures were made with Soxhlet-extracted, grey-rubber septa from West. […]
A moth in a release cage was held on a platform 20 cm above the floor for 15 s in the plume of pheromone and then released by turning open end of the cage toward upwind. […] Flights were recorded on video and data were collected from videos. […]

[1] = terminal hydroxylation, by alkane/FA chain length

SMILES	Relative activity, CYP52A3 (Scheller et al., 1996, Arch. Biochem Biophys. 328: 245-254) (CYP52A3)	Relative activity, CYP52A4 (Scheller et al., 1996, Arch. Biochem Biophys. 328: 245-254) (CYP52A4)	Relative activity, alkB2 Gordonia sp TF6 (Fujii et al., 2004, Biosci. Biotechnol. Biochem. 68: 2171-2177) (alkB2 Gordonia sp TF6) [%]	Relative activity, LadA (Feng et al., 2007, Proc. Natl. Acad. Sci. U.S.A. 104: 5602-5607) (LadA)	further results
CCCCCCCCCCCC(=O)O [C12 FA (lauric)]	20	100	–	–	Relative activity, CYP52A21 (Kim et al., 2007, Arch. Biochem. Biophys. 464: 213-220) (CYP52A21; [1]): 100
CCCCCCCCCCC [C11]	–	–	48	–	Relative activity, AlkB P. putida GPo1 (Vanbeilen et al., 1994, Enzyme Microb. Technol. 16: 904-911) (AlkB P. putida GPo1): 6; Relative activity, CYP153A6 (Funhoff et al., 2006, J. Bacteriol. 188: 5220-5227) (CYP153A6): 1; Relative activity, CYP153A16 (Scheps et al., 2011, Org. Biomol. Chem. 9: 6727-6733) (CYP153A16): <8; Relative activity, CYP153A P. sp. (Scheps et al., 2011, Org. Biomol. Chem. 9: 6727-6733) (CYP153A P. sp.): <6
CCCCCCCCCCCCCCCC(=O)O [C16 FA (Palmetic)]	35	18	–	–	Relative activity, CYP52A21 (Kim et al., 2007, Arch. Biochem. Biophys. 464: 213-220) (CYP52A21; [1]): 29
CCCCCCCCCCCCCCCCCCCCCCCC [C24]	–	–	–	65	–
CCCCCCCCCCCCCCCC [C16]	100	33	–	100	–
CCCCCCCCCCCC [C12]	41	37	34	–	–
CCCCCCCCCCCCCCCCCC(=O)O [C18 FA (Stearic)]	30	1	–	–	–
CCCCCCCCCCCCCCCCCC [C18]	48	20	–	78	–
CCCCCCCCCC [C10]	–	–	66	–	Relative activity, AlkB P. putida GPo1 (Vanbeilen et al., 1994, Enzyme Microb. Technol. 16: 904-911) (AlkB P. putida GPo1): 60; Relative activity, CYP153A6 (Funhoff et al., 2006, J. Bacteriol. 188: 5220-5227) (CYP153A6): 23; Relative activity, CYP153A16 (Scheps et al., 2011, Org. Biomol. Chem. 9: 6727-6733) (CYP153A16): 13; Relative activity, CYP153A P. sp. (Scheps et al., 2011, Org. Biomol. Chem. 9: 6727-6733) (CYP153A P. sp.): 60
CCCCCCCCCC/C=C\CCCC=O [Z-5-hexadecedenal, Z-5-hexadecenal]	–	–	–	–	upwind flight response (Helicoverpa zea): triggers a similar upwind flight response
CCCCCCCC [C8]	–	–	72	–	Relative activity, AlkB P. putida GPo1 (Vanbeilen et al., 1994, Enzyme Microb. Technol. 16: 904-911) (AlkB P. putida GPo1): 95; Relative activity, CYP153A6 (Funhoff et al., 2006, J. Bacteriol. 188: 5220-5227) (CYP153A6): 100; Relative activity, CYP153A16 (Scheps et al., 2011, Org. Biomol. Chem. 9: 6727-6733) (CYP153A16): 100; Relative activity, CYP153A P. sp. (Scheps et al., 2011, Org. Biomol. Chem. 9: 6727-6733) (CYP153A P. sp.): 100
CCCCCCCCCCCCCCCCCCCCCC [C22]	–	–	–	74	–
CCCCCCCCCCCCCC(=O)O [C14 FA (Myristic)]	–	–	–	–	Relative activity, CYP52A21 (Kim et al., 2007, Arch. Biochem. Biophys. 464: 213-220) (CYP52A21): 86
CCCCCCCCCCCCCCC [C15]	–	–	–	83	–
CCCCCCCCC [C9]	–	–	63	–	Relative activity, AlkB P. putida GPo1 (Vanbeilen et al., 1994, Enzyme Microb. Technol. 16: 904-911) (AlkB P. putida GPo1): 100; Relative activity, CYP153A6 (Funhoff et al., 2006, J. Bacteriol. 188: 5220-5227) (CYP153A6): 82; Relative activity, CYP153A16 (Scheps et al., 2011, Org. Biomol. Chem. 9: 6727-6733) (CYP153A16): 29; Relative activity, CYP153A P. sp. (Scheps et al., 2011, Org. Biomol. Chem. 9: 6727-6733) (CYP153A P. sp.): 69

Source: patent publication US10045530B2, “Agricultural pheromone compositions comprising positional isomers” (PROVIVI, INC., priority 2015, dated 2018)
